{"source": "patent EP2511272B1", "about": "“Synthetic analogues of abscisic acid with anti-inflammatory and insulin release stimulation effects on human cells” (Universita' degli Studi di Genova, priority 2011, dated 2012)", "key": {"human granulocytes": {"test_system": "human granulocytes", "test": "Inhibition of ABA-induced phagocytosis of fluorescent beads", "assay_type": "cell-based", "protocol": "Human granulocytes, after ON incubation in complete DMEM/F12, were resuspended at 1x10^6 cells/100 µl in HBSS.\nFor the experiment, fluorescent polystyrene (carboxylate-modified polystyrene) beads were used, of 1 µm of diameter (Sigma-Aldrich) A volume of 100 µl of cellular suspension was subdivided into eppendorf, in which a 10 minutes long preincubation was carried out with 20 µM ABA, either alone, or together with increasing concentrations of compound prepared according to example 1.\nAfter the end of the preincubation, the beads were added for 5, 10 and 30 minutes. For each experimental point, 2.5 x 10^5 beads were used.\nAt the end of the incubations, the cells were collected by centrifugation (200xg for 10 seconds), were washed with 1 ml of HBSS at 0 °C and were centrifuged once again at 200xg for 10 seconds. The supernatant was discarded and the cells were resuspended in 350 µl of HBSS and added to 96-well plates of white colour (100 µl per well).\nThe increase in fluorescence was measured with Fluostar OPTIMA fluorometer (λexc: 485; λemis: 520).\nThe experiment was carried out three times in triplicate.\nHuman grnulocytes were preincubated for 10 minutes at 20 °C with 20 µM ABA, either alone or in the presence of compound prepared according to example 1, at various concentrations. In order to evaluate the phagocytic capability of granulocytes, fluorescent beads were added and, after 15 and 30 minutes, the fluorescence absorbed by the cells was determined as described in Materials and Methods The results were expressed as the average of the results obtained from three independent experiments, from which the background value, obtained from the control, had been subtracted (TABLE 5). TABLE 5. Inhibition of phagocitosis, in human granulocytes stimulated with ABA, by compound prepared according to example 1."}, "human monocytes [1]": {"test_system": "human monocytes", "test": "Inhibition of ABA-induced PGE2 production in monocytes (EIA)", "assay_type": "cell-based", "conditions": "6 h", "protocol": "Monocytes, 25 x 10^6/Petri in complete RPMI, were incubated for 6 h with 100 nM ABA either alone, or in the presence of compound prepared according to example 1, at a concentration of 1 µM. At the end of the incubation, the substrate was centrifuged at 17,000xg for 5 minutes and the concentration of PGE2 was quantitated by using the kit: PGE2 monoclonal EIA kit (Cayman Chemical Co.), following the instructions suppled by the manufacturer.\n(§1) The cells were lysed in 200 µl of deionized water in order to quantitate total proteins by the Bradford method (Bradford, M. M., 1976), after thre preliminary generation of a reference standard curve, obtained with different concentrations of bovine serum albumin. The spectrophotometric measurements were carried out at wavelength of 595 nm.\n(§2) The experiment was carried out three times in sextuplicate.\nThe results were expressed as the average of the results from three independent experiments, as referred to control value. […] TABLE 7. Inhibition of PGE2 production, in human monocytes stimulated with ABA, by compound prepared according to example 1"}, "[2]": {"test_system": "Human pancreatic beta cells", "test": "Insulin release (secretion index) by human pancreatic beta cells", "assay_type": "cell-based", "protocol": "Human pancreatic beta cells were incubated in 5 […], or 25 mM glucose (HG), in the absence or in the presence of 100 nM ABA or of compound according to example 1 ([…]). Insulin release is expressed as the secretion index (SI) relative to insulin release in LG..\nAs in the preceding example, for the experimental procedere, reference may be made to the there cited paper, except for the specific use of compound according to example 1. TABLE 13. Effect of ABA and of compound prepared according to example 1 on insulin release (SI) by human pacreatic beta cells at 30 minutes and 120 minutes."}, "INS-1 cells": {"test_system": "INS-1 cells", "test": "Insulin release (secretion index) by INS-1 cells, scr or LANCL-2 silenced", "assay_type": "cell-based, rat", "conditions": "30 minutes", "protocol": "Insulinoma cells of INS-1 rat were transfected with LANCL-2 silencing RNAs LANCL-2 (siRNAL2) or with nonsense RNA (scr) and were incubated in 5 mM glucose (LG) oppure 25 mM glucose (HG), in the absence or in the presence of 100 nM ABA or of compound according to example 1 (100 nM). Insulin release is expressed as the secretion index (SI) relative to insulin release in LG. As regards the experimental procedure, with the exception of use of compound according to example 1, reference can be made to the following paper, in which the properties which are the subject-matter of the present example were investigated for only ABA. Sturla L, Fresia C, Guida L, Grozio A, Vigliarolo T, Mannino E, Millo E, Bagnasco L, Bruzzone S, De Flora A, Zocchi E. Binding of abscisic acid to human LANCL2. Biochem Biophys Res Commun. 2011 Nov 18;415(2):390-5. TABLE 12. Effect of ABA and of compound from example 1 on insulin release (SI) by […] at 30 minutes."}, "human monocytes [3]": {"test_system": "human monocytes", "test": "Inhibition of ABA-induced MCP-1 production in monocytes (ELISA)", "assay_type": "cell-based", "conditions": "6 h", "protocol": "Monocytes, 25 x 10^6/Petri in complete RPMI, were incubated for 6 h with 100 nM ABA either alone, or in the presence of compound prepared according to example 1, at a concentration of 1 µM. At the end of the incubation, the substrate was centrifuged at 17,000xg for 5 minutes and the release of MCP-1 (monocyte chemotactic protein-1) was quantitated by means of kit MC=-1 Elisa kit (GE Healthcare), in accordance with the instructions supplied by the manufacturer.\nas §1, with “method,” for “method (Bradford, M. M., 1976),”\nas §2\nThe results were expressed as the average of the results from three independent experiments, as referred to control value. […] TABLE 8. Inhibition of MCP-1 production in human monocytes by compound prepared according to example 1"}, "[4]": {"conditions": "LG, substance 100 nM, at 30 minutes"}, "[5]": {"conditions": "LG, substance 100 nM, at 120 minutes"}, "[6]": {"conditions": "LANCL2 siRNA, HG (25 mM glucose), substance 100 nM"}, "[7]": {"conditions": "LANCL2 siRNA, LG (5 mM glucose), substance 100 nM"}, "[8]": {"conditions": "SCR, HG (25 mM glucose), substance 100 nM"}, "[9]": {"conditions": "SCR, LG (5 mM glucose), substance 100 nM"}, "[10]": {"conditions": "Homo sapiens, Monocyte, ABA 100 nM + compound 1 µM"}}, "note": "Like-named read-outs stand apart in the source and are kept apart here.", "data": [{"compound": "CC1=CC(=O)CC(C)(C)C1(O)/C=C/C(C)=C\\C(=O)O", "note": "(racemic) [ABA, (2Z,4E)-5-(1-hydroxy-2,6,6-trimethyl-4-oxo-2-cyclohexen-1-yl)-3-methyl-2,4-pentadienoic acid, reference compound]", "values": [{"measurement": "Increase in fluorescence ±SD (@ 15 min)", "setting": "human granulocytes; ABA 20 µM alone, 15 min", "result": "909±47"}, {"measurement": "Increase in fluorescence ±SD (@ 30 min)", "setting": "human granulocytes; ABA 20 µM alone, 30 min", "result": "2476±50"}, {"measurement": "Relative amount of PGE2 as referred to control ± SD", "setting": "human monocytes [1]; ABA 100 nM alone", "result": "2,2±0,2"}, {"measurement": "SI (insulin secretion index relative to LG)", "setting": "[2]; [4]", "result": "0,91"}, {"measurement": "SI (insulin secretion index relative to LG)", "setting": "[2]; [5]", "result": "1,8"}, {"measurement": "insulin release, secretion index (SI) relative to LG", "setting": "INS-1 cells; [6]", "result": 1.7}, {"measurement": "insulin release, secretion index (SI) relative to LG", "setting": "INS-1 cells; [7]", "result": 1}, {"measurement": "insulin release, secretion index (SI) relative to LG", "setting": "INS-1 cells; [8]", "result": 6.4}, {"measurement": "insulin release, secretion index (SI) relative to LG", "setting": "INS-1 cells; [9]", "result": 1.7}, {"measurement": "MCP-1 relatively to control ± SD", "setting": "human monocytes [3]; ABA 100 nM alone", "result": "2±0.2"}]}, {"compound": "CC(=C/C(=O)O)/C=C/C1(O)C(C)(C)CC(=O)C2OC21C", "note": "(stereo not drawn) [Example 1, 2'α,3'α-dihydro-2'α,3'α-epoxyabscisic acid]", "values": [{"measurement": "Increase in fluorescence ±SD (@ 15 min)", "setting": "human granulocytes; ABA 20 µM + compound 0.5 nM, 15 min", "result": "210±2"}, {"measurement": "Increase in fluorescence ±SD (@ 30 min)", "setting": "human granulocytes; ABA 20 µM + compound 0.5 nM, 30 min", "result": "1423±3"}, {"measurement": "Increase in fluorescence ±SD (@ 15 min)", "setting": "human granulocytes; ABA 20 µM + compound 10 nM, 15 min", "result": "148±2"}, {"measurement": "Increase in fluorescence ±SD (@ 30 min)", "setting": "human granulocytes; ABA 20 µM + compound 10 nM, 30 min", "result": "515±10"}, {"measurement": "Increase in fluorescence ±SD (@ 15 min)", "setting": "human granulocytes; ABA 20 µM + compound 1 µM, 15 min", "result": 17}, {"measurement": "Increase in fluorescence ±SD (@ 30 min)", "setting": "human granulocytes; ABA 20 µM + compound 1 µM, 30 min", "result": 0}, {"measurement": "inhibition at 0.0005 µM", "setting": "human granulocytes; Homo sapiens, 0.25 h, ABA 20 µM + compound 0.5 nM, 15 min, read-out: Inhibition % (@ 15 min)", "result": 77, "unit": "%"}, {"measurement": "inhibition at 0.01 µM", "setting": "human granulocytes; Homo sapiens, 0.25 h, ABA 20 µM + compound 10 nM, 15 min, read-out: Inhibition % (@ 15 min)", "result": 84, "unit": "%"}, {"measurement": "inhibition at 1 µM", "setting": "human granulocytes; Homo sapiens, 0.25 h, ABA 20 µM + compound 1 µM, 15 min, read-out: Inhibition % (@ 15 min)", "result": 98, "unit": "%"}, {"measurement": "inhibition at 0.0005 µM", "setting": "human granulocytes; Homo sapiens, 0.5 h, ABA 20 µM + compound 0.5 nM, 30 min, read-out: Inhibition % (@ 30 min)", "result": 43, "unit": "%"}, {"measurement": "inhibition at 0.01 µM", "setting": "human granulocytes; Homo sapiens, 0.5 h, ABA 20 µM + compound 10 nM, 30 min, read-out: Inhibition % (@ 30 min)", "result": 80, "unit": "%"}, {"measurement": "inhibition at 1 µM", "setting": "human granulocytes; Homo sapiens, 0.5 h, ABA 20 µM + compound 1 µM, 30 min, read-out: Inhibition % (@ 30 min)", "result": 100, "unit": "%"}, {"measurement": "IC50", "setting": "human granulocytes; Homo sapiens, phagocytosis induced by 20 µM ABA", "result": "~0.5", "unit": "nM"}, {"measurement": "Relative amount of PGE2 as referred to control ± SD", "setting": "human monocytes [1]; ABA 100 nM + compound 1 µM", "result": "1,0±0,1"}, {"measurement": "inhibition at 1 µM", "setting": "human monocytes [1]; [10]", "result": 100, "unit": "%"}, {"measurement": "SI (insulin secretion index relative to LG)", "setting": "[2]; HG, ABA (100 nM) + compound (100 nM) together, time not printed in the row", "result": "3,8"}, {"measurement": "SI (insulin secretion index relative to LG)", "setting": "[2]; LG, ABA (100 nM) + compound (100 nM) together, time not printed in the row", "result": "0,72"}, {"measurement": "SI (insulin secretion index relative to LG)", "setting": "[2]; [4]", "result": "1,8"}, {"measurement": "SI (insulin secretion index relative to LG)", "setting": "[2]; [5]", "result": "2,2"}, {"measurement": "insulin release, secretion index (SI) relative to LG", "setting": "INS-1 cells; [6]", "result": 3}, {"measurement": "insulin release, secretion index (SI) relative to LG", "setting": "INS-1 cells; LANCL2 siRNA, HG, ABA 100 nM + compound 100 nM together", "result": 8}, {"measurement": "insulin release, secretion index (SI) relative to LG", "setting": "INS-1 cells; [7]", "result": 2}, {"measurement": "insulin release, secretion index (SI) relative to LG", "setting": "INS-1 cells; LANCL2 siRNA, LG, ABA 100 nM + compound 100 nM together", "result": 5}, {"measurement": "insulin release, secretion index (SI) relative to LG", "setting": "INS-1 cells; [8]", "result": 6}, {"measurement": "insulin release, secretion index (SI) relative to LG", "setting": "INS-1 cells; SCR, HG, ABA 100 nM + compound 100 nM together", "result": 12}, {"measurement": "insulin release, secretion index (SI) relative to LG", "setting": "INS-1 cells; [9]", "result": 2.5}, {"measurement": "insulin release, secretion index (SI) relative to LG", "setting": "INS-1 cells; SCR, LG, ABA 100 nM + compound 100 nM together", "result": 8.5}, {"measurement": "MCP-1 relatively to control ± SD", "setting": "human monocytes [3]; ABA 100 nM + compound 1 µM", "result": "0.8±0.2"}, {"measurement": "inhibition at 1 µM", "setting": "human monocytes [3]; [10]", "result": 100, "unit": "%"}]}]}
